Source: US7414041B2 (Trustees Of Tufts College, priority 1991, dated 2008)
Read-outs that look alike come from different tables or passages of the source.

Experiments:
[1] = tested on: E. coli Class β Tc^r (DI-209); type: cell-based
S. aureus Tc^s (RN450) = experiment: susceptibility testing MIC/MLC, drug alone; type: cell-based; conditions: for MLC: kills 99.9%
[2] = tested on: E. coli Tc^s (MI 300-225); experiment: susceptibility testing MIC/MLC, drug alone; type: cell-based; conditions: Tc^s
[3] = tested on: E. coli Class A Tc^r (DI-299); type: cell-based
[4] = tested on: E. faecalis Tc^r (M) (ATCC9790r/Tet M); type: cell-based
E. faecalis (Tet M) = conditions: E. faecalis (Class M)
[5] = tested on: E. faecalis Tc^r (L) (ATCC9790r/Tet L); type: cell-based; conditions: for MLC: E. faecalis Tet L; for MIC: Tc^r (L)
[6] = tested on: E. faecalis Tc^s (ATCC9790r); experiment: susceptibility testing MIC/MLC, drug alone; type: cell-based
S. aureus Tc^r (RN4250) = type: cell-based
[7] = target: T1, TET proteins responsible for tetracycline efflux (Class B tetracycline resistance determinant, strain D1-209) (Escherichia coli, UniProt P02980); experiment: biochemical; design: species or system E. coli
T1 construct: Everted vesicles, to which the TET proteins responsible for tetracycline efflux are attached; endogenous in cells; host or cells: E. coli strain D1-209 (everted membrane vesicles)

E. faecalis 211 (Tet M) = experiment: MIC/MLC chart, analog with and without doxycycline; type: cell-based;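 note: broth checkerboard of two-fold drug dilutions, alone and mixed with doxycycline, bacteria near 5×10^5 cells/ml, 18 h incubation at 37 °C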
S. aureus 4250 (Tet K) = experiment: MIC/MLC chart, analog with and without doxycycline; type: cell-based
E. faecalis 158 (Tet L) = experiment: MIC/MLC chart, analog with and without doxycycline; type: cell-based
E. coli D1-299 (Tet A) = type: cell-based
[8] = doxycycline alone 1.56 μg/ml (Doxy Control)
[9] = doxycycline alone 3.12 μg/ml (Doxy Control)
[10] = doxycycline alone 6.25 μg/ml (Doxy Control)
[11] = doxycycline alone 12.5 μg/ml (Doxy Control)
[12] = uptake at 2.5 minutes, about 4 μM 3H-tetracycline, read-out: IC50

T1 sequence (P02980 whole entry): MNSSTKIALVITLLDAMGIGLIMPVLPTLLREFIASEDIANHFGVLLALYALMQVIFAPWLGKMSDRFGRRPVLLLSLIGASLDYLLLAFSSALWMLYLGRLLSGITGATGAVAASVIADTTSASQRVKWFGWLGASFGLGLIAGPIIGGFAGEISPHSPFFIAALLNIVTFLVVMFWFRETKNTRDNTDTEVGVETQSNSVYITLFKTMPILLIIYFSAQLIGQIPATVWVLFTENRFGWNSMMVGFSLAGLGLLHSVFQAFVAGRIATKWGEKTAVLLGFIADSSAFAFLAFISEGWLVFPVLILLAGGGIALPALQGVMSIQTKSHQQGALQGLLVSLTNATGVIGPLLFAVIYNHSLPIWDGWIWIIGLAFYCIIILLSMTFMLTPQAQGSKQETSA

## 6-deoxy-13-(benzyl mercapto) tetracycline
[1]; 1st column
  MIC: 30 ± 0.26 µg
[1]; 2nd column
  MIC: 60 ± 10 µg
S. aureus Tc^s (RN450)
  MIC: 0.2 ± 0.1 µg
  MLC: 10 ± 2 µg
[2]; 1st column
  MIC: 16 ± 6 µg
[2]; 2nd column
  MIC: 26 ± 6 µg
[3]; 1st column
  MIC: 46 ± 20 µg
[3]; 2nd column
  MIC: 160 ± 60 µg
[4]; 1st column
  MIC: 3.6 ± 1 µg
E. faecalis (Tet M)
  synergistic activity with tetracycline: little, if any synergistic activity
[5]
  MLC: 8 ± 2 mg/L
[5]; 1st column
  MIC: 0.76 ± 0.26 µg
[6]; 1st column
  MIC: 0.6 ± 0.25 µg
[6]; 2nd column
  MIC: 8 ± 0.26 µg

## 6-deoxy-13-(cyclopentyl mercapto) tetracycline
[1]; 1st column
  MIC: 60 ± 40 µg
[1]; 2nd column
  MIC: 100 ± 60 µg
S. aureus Tc^s (RN450)
  MIC: 1 µg
  MLC: 5 µg
[2]; 1st column
  MIC: 20 µg
[2]; 2nd column
  MIC: 60 µg
[3]; 1st column
  MIC: 40 ± 0.26 µg
[3]; 2nd column
  MIC: 60 µg
[4]; 1st column
  MIC: 3 ± 1 µg
E. faecalis (Tet M)
  synergistic activity with tetracycline: little, if any synergistic activity
[5]; 1st column
  MIC: 1 ± 0.6 µg
S. aureus Tc^r (RN4250); resistant S. aureus
  MLC: 6 ± 2 mg/L
[6]; 1st column
  MIC: 1 ± 0.26 µg
[6]; 2nd column
  MIC: 10 ± 4 µg

## CCCCCCCC(=O)O[C@H]1C2C(=C(O)C3(O)C(=O)C(C(N)=O)=C(O)[C@@H](N(C)C)C13)C(=O)c1c(O)cccc1C2C (some centres unmarked) [Cmpd 4]
[7]
  IC50: 9.3 µM

## C=C1c2cccc(O)c2C(=O)C2=C(O)C3(O)C(=O)C(C(N)=O)=C(O)C(N(C)C)C3C(OC(=O)C3CC3)C12 (centres unmarked) [Cmpd 11, 5 cyclopropanoate methacycline]
[7]
  IC50: 9.4 µM

## CC1c2cccc(O)c2C(=O)C2=C(O)C3(O)C(=O)C(C(N)=O)=C(O)[C@@H](N(C)C)C3[C@@H](OC(=O)CCC(=O)O)C21 (some centres unmarked) [Cmpd 6]
[7]
  IC50: 2 µM

## C[C@H]1c2cccc(O)c2C(O)=C2C(=O)[C@]3(O)C(O)=C(C(N)=O)C(=O)[C@@H](N(C)C)[C@@H]3[C@@H](O)[C@@H]21 [Doxy, Doxycycline, reference compound]
E. faecalis 211 (Tet M); Chart 6D, Doxy Control (doxycycline alone), μg/ml = number in line above
  MIC/MLC chart symbol: ↓ and +
E. faecalis 211 (Tet M); doxy alone 1.56 μg/ml
  growth / no growth (MIC) / killing (MLC) symbol: +
E. faecalis 211 (Tet M); doxy alone 3.12 μg/ml
  growth / no growth (MIC) / killing (MLC) symbol: +
E. faecalis 211 (Tet M); doxy alone 6.25 μg/ml
  growth / no growth (MIC) / killing (MLC) symbol: +
E. faecalis 211 (Tet M); doxy alone 12.5 μg/ml
  growth / no growth (MIC) / killing (MLC) symbol: +
E. faecalis 211 (Tet M); doxy alone 25 μg/ml
  growth / no growth (MIC) / killing (MLC) symbol: ↓
E. faecalis 211 (Tet M); [8]
  MIC/MLC chart: growth or killing: +
E. faecalis 211 (Tet M); [9]
  MIC/MLC chart: growth or killing: +
E. faecalis 211 (Tet M); [10]
  MIC/MLC chart: growth or killing: +
E. faecalis 211 (Tet M); [11]
  MIC/MLC chart: growth or killing: +
S. aureus 4250 (Tet K); Chart 6B, Doxy Control (doxycycline alone), μg/ml = number in line above
  MIC/MLC chart symbol: +
S. aureus 4250 (Tet K); doxy alone 1.56 μg/ml
  growth / no growth (MIC) / killing (MLC) symbol: +
S. aureus 4250 (Tet K); doxy alone 3.12 μg/ml
  growth / no growth (MIC) / killing (MLC) symbol: +
S. aureus 4250 (Tet K); doxy alone 6.25 μg/ml
  growth / no growth (MIC) / killing (MLC) symbol: +
S. aureus 4250 (Tet K); doxy alone 12.5 μg/ml
  growth / no growth (MIC) / killing (MLC) symbol: +
S. aureus 4250 (Tet K); [8]
  MIC/MLC chart: growth or killing: +
S. aureus 4250 (Tet K); [9]
  MIC/MLC chart: growth or killing: +
S. aureus 4250 (Tet K); [10]
  MIC/MLC chart: growth or killing: +
S. aureus 4250 (Tet K); [11]
  MIC/MLC chart: growth or killing: ◯
E. faecalis 158 (Tet L); Chart 6C, Doxy Control (doxycycline alone), μg/ml = number in line above
  MIC/MLC chart symbol: +
E. faecalis 158 (Tet L); doxy alone 1.56 μg/ml
  growth / no growth (MIC) / killing (MLC) symbol: +
E. faecalis 158 (Tet L); doxy alone 3.12 μg/ml
  growth / no growth (MIC) / killing (MLC) symbol: +
E. faecalis 158 (Tet L); doxy alone 6.25 μg/ml
  growth / no growth (MIC) / killing (MLC) symbol: +
E. faecalis 158 (Tet L); doxy alone 12.5 μg/ml
  growth / no growth (MIC) / killing (MLC) symbol: ↓
E. faecalis 158 (Tet L); [8]
  MIC/MLC chart: growth or killing: +
E. faecalis 158 (Tet L); [9]
  MIC/MLC chart: growth or killing: +
E. faecalis 158 (Tet L); [10]
  MIC/MLC chart: growth or killing: +
E. coli D1-299 (Tet A); Chart 6A, Doxy Control (doxycycline alone), μg/ml = number in line above
  MIC/MLC chart symbol: ◯ and +
E. coli D1-299 (Tet A); doxy alone 1.56 μg/ml
  growth / no growth (MIC) / killing (MLC) symbol: +
E. coli D1-299 (Tet A); doxy alone 3.12 μg/ml
  growth / no growth (MIC) / killing (MLC) symbol: +
E. coli D1-299 (Tet A); doxy alone 6.25 μg/ml
  growth / no growth (MIC) / killing (MLC) symbol: +
E. coli D1-299 (Tet A); doxy alone 12.5 μg/ml
  growth / no growth (MIC) / killing (MLC) symbol: +
E. coli D1-299 (Tet A); doxy alone 25 μg/ml
  growth / no growth (MIC) / killing (MLC) symbol: ◯
E. coli D1-299 (Tet A); [8]
  MIC/MLC chart: growth or killing: +
E. coli D1-299 (Tet A); [9]
  MIC/MLC chart: growth or killing: +
E. coli D1-299 (Tet A); [10]
  MIC/MLC chart: growth or killing: +
E. coli D1-299 (Tet A); [11]
  MIC/MLC chart: growth or killing: +
E. coli D1-299 (Tet A); doxycycline alone 25.0 μg/ml (Doxy Control)
  MIC/MLC chart: growth or killing: +

## CN(C)c1ccc(O)c2c1C[C@H]1C[C@H]3[C@H](N(C)C)C(=O)C(C(N)=O)=C(O)[C@@]3(O)C(=O)C1=C2O [Minocycline, reference compound]
[1]; 1st column
  MIC: 6 ± 2 µg
[1]; 2nd column
  MIC: 30 ± 10 µg
S. aureus Tc^s (RN450)
  MIC: <0.25 µg
  MLC: 8 µg
[2]; 1st column
  MIC: <4 µg
[2]; 2nd column
  MIC: <4 µg
[3]; 1st column
  MIC: <4 µg
[3]; 2nd column
  MIC: 20 µg
[4]; 1st column
  MIC: 10 µg
[4]; 2nd column
  MIC: >80 µg
[5]; 1st column
  MIC: <0.26 µg
[5]; 2nd column
  MIC: >80 µg
S. aureus Tc^r (RN4250); Tc^r RN4250
  MIC: <0.25 µg
S. aureus Tc^r (RN4250); Tc^r RN4250, kills 99.9%
  MLC: >80 µg
[6]; 1st column
  MIC: <0.26 µg
[6]; 2nd column
  MIC: >40 µg

## CN(C)C1C(O)=C(C(N)=O)C(=O)C2(O)C(O)=C3C(=O)c4c(O)cccc4C(C)(O)C3CC12 (centres unmarked) [Tetracycline, 4-(Dimethylamino)-1,4,4a,5,5a,6-11,12a-octahydro-3,6,10,12,12a-pentahydroxy-6-methyl-1-11-dioxo-2-naphth acenecarboxamide, reference compound]
[1]; 1st column
  MIC: >200 µg
[1]; 2nd column
  MIC: >200 µg
S. aureus Tc^s (RN450)
  MIC: 0.75 ± 0.25 µg
  MLC: >6 µg
[2]; 1st column
  MIC: 0.6 ± 0.26 µg
[2]; 2nd column
  MIC: 40 ± 0.26 µg
[3]; 1st column
  MIC: 160 ± 0.26 µg
[3]; 2nd column
  MIC: 200 µg
[4]; 1st column
  MIC: 100 µg
[4]; 2nd column
  MIC: 300 µg
[5]; 1st column
  MIC: 90 ± 10 µg
[5]; 2nd column
  MIC: >300 µg
S. aureus Tc^r (RN4250); Tc^r RN4250
  MIC: 90 ± 10 µg
S. aureus Tc^r (RN4250); Tc^r RN4250, kills 99.9%
  MLC: 100 µg
[6]; 1st column
  MIC: 0.26 µg
[6]; 2nd column
  MIC: >200 µg

## 6-deoxy-13-(cyclohexyl mercapto) tetracycline
S. aureus Tc^s (RN450)
  MIC: 2.5 ± 1.25 µg
  MLC: 10 ± 5 µg
[2]; 1st column
  MIC: 60 ± 10 µg
[2]; 2nd column
  MIC: 120 µg
[3]; 1st column
  MIC: 100 ± 0.26 µg
[3]; 2nd column
  MIC: >200 µg
[4]; 1st column
  MIC: 2.6 ± 0.6 µg
E. faecalis (Tet M)
  synergistic activity with tetracycline: little, if any synergistic activity
[5]
  MLC: 8 ± 2 mg/L
[5]; 1st column
  MIC: 1.6 ± 0.6 µg
[6]; 1st column
  MIC: 1.26 ± 0.26 µg
[6]; 2nd column
  MIC: 8 µg

## CC1c2cccc(O)c2C(=O)C2=C(O)C3(O)C(=O)C(C(N)=O)=C(O)[C@@H](N(C)C)C3[C@@H](OCCCN)C21 (some centres unmarked) [Cmpd 7]
[7]; [12]
  IC50: 6.4 µM

## CN(C)[C@@H]1C(O)=C(C(N)=O)C(=O)C2(O)C(O)=C3C(=O)c4c(O)cccc4C(CSC4CCCC4)C3[C@H](OC(=O)C3CCCC3)C12 (some centres unmarked) [Cmpd 10]
[7]; [12]
  IC50: > 30 µM

## CC(C)SCC1c2cccc(O)c2C(=O)C2=C(O)C3(O)C(=O)C(C(N)=O)=C(O)C(N(C)C)C3C(O)C21 (centres unmarked) [Isopropyl]
[1]; 1st column
  MIC: 35 ± 6 µg
[1]; 2nd column
  MIC: 46 ± 16 µg
S. aureus Tc^s (RN450)
  MIC: 0.5 ± 0.25 µg
  MLC: 6 ± 2 µg
[2]; 1st column
  MIC: 22 ± 2 µg
[2]; 2nd column
  MIC: 60 µg
[3]; 1st column
  MIC: 46 ± 6 µg
[3]; 2nd column
  MIC: 60 µg
[4]; 2nd column
  MIC: >200 µg
[5]; 1st column
  MIC: 3 ± 1 µg
[5]; 2nd column
  MIC: 100 ± 0.25 µg
S. aureus Tc^r (RN4250); Tc^r RN4250
  MIC: 4.5 ± 0.5 µg
S. aureus Tc^r (RN4250); Tc^r RN4250, kills 99.9%
  MLC: 8 µg
[6]; 1st column
  MIC: 3 ± 1 µg
[6]; 2nd column
  MIC: 20 ± 0.26 µg

## CN(C)[C@@H]1C(O)=C(C(N)=O)C(=O)C2(O)C(O)=C3C(=O)c4c(O)cccc4C(CSC4CCCC4)C3[C@H](OC(=O)C3CCCCC3)C12 (some centres unmarked) [Cmpd 9]
[7]
  IC50: > 30 µM
